# According to patent publication US8409619B2, “Oral drug delivery system for azole, moxifloxacin and rifampicin” (priority 2008, dated 2013):
# Like-named read-outs stand apart in the source and are kept apart here.
# What was measured:
# M. tuberculosis H37Rv = test: Experimental infection and chemotherapy (murine tuberculosis, cfu in lungs and spleen); format: in vivo; conditions: for Log10 cfu Lung / Log10 cfu Spleen: mice infected i.v. with M. tuberculosis H37Rv, eight weeks oral chemotherapy, sacrificed day 62, mean ± S.D.; for reduction of bacterial burden in organs / cfu reduction from lungs and spleen as compared to untreated controls: mice, eight weeks of chemotherapy; for cfu reduction from lungs and spleen as compared to untreated controls: free form daily/twice daily or encapsulated form weekly
# [1] = not given; remark: listed apart in the source
Compound,"time up to which drug was detected in organs (oral free drug, mice) [h]",Log10 cfu Lung (M. tuberculosis H37Rv) [Log10 cfu],Log10 cfu Spleen (M. tuberculosis H37Rv) [Log10 cfu],reduction of bacterial burden in organs (M. tuberculosis H37Rv),cfu reduction from lungs and spleen as compared to untreated controls (M. tuberculosis H37Rv),"time up to which drug was detectable in plasma ([1]; oral free drug, mice)","time up to which drug was detected in organs (mouse, in vivo, po)","time up to which drug was detectable in plasma ([1]; mouse, in vivo, po) [h]"
"COc1c(N2C[C@@H]3CCCN[C@@H]3C2)c(F)cc2c(=O)c(C(=O)O)cn(C3CC3)c12 [Free moxifloxacin, moxifloxacin]",≤ 24,4.96 ± 0.013,4.96 ± 0.013,about 2 log cfu,approximately 2 Log10 cfu,up to 12 h,,
"Clc1ccc(COC(Cn2ccnc2)c2ccc(Cl)cc2Cl)cc1 (stereo not drawn) [Free econazole, econazole]",,4.87 ± 0.040,4.89 ± 0.020,about 2 log cfu,approximately 2 Log10 cfu,,up to 12 h,3 to 4
